Experiments:
hENT1 [1] = molecular target: T1, hENT1 (Homo sapiens, UniProt Q99808); type: cell-based; conditions: PK15-ENT1 cells, combined with rapadocin
T1 sequence (Q99808 1-456): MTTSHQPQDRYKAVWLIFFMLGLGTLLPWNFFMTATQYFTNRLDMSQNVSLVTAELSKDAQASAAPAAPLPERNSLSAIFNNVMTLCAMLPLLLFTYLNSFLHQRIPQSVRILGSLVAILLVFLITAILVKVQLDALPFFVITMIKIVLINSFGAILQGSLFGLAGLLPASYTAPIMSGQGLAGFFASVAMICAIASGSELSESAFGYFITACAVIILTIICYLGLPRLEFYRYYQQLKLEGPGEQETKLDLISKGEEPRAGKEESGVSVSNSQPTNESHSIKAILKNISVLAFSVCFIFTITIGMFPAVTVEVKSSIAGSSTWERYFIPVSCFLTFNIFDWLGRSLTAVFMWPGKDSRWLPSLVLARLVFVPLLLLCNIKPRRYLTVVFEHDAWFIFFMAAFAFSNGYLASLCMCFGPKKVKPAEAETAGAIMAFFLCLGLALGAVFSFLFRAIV

HUVEC = experiment: Adenosine; type: cell-based, human
hENT1 [2] = molecular target: T1, hENT1; experiment: Affinity pulldown with biotinylated rapadocin, red blood cell membrane extract; type: binding; conditions: competitor
hENT1 [3] = molecular target: hENT1 (Homo sapiens, UniProt P62942+Q99808); experiment: GST-FKBP12 affinity pulldown, red blood cell membrane extract; type: binding; conditions: competitor
[4] = test system: Id1-Luc luciferase reporter; experiment: BMP reporter gene assay; type: cell-based, human; conditions: Jurkat T cells, 10 µM, 18 h

hENT1 (Homo sapiens, UniProt P62942+Q99808), sequence (P62942 whole entry, one chain of several): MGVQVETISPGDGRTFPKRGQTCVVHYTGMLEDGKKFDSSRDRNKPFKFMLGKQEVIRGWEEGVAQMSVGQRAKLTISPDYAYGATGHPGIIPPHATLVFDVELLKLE

Compound | antagonism of rapadocin inhibition of hENT1-mediated thymidine uptake (hENT1 [1]) | IC50, nucleoside uptake (HUVEC) | competition of hENT1 binding of the biotin-rapadocin probe (hENT1 [2]) | competition of GST-FKBP12-rapadocin association with hENT1 (hENT1 [3]) | activation of the Id1-Luc reporter gene [4]
COc1ccc(-c2ccc3c(N4CCOC[C@@H]4C)nc(N4CCOC[C@@H]4C)nc3n2)cc1CO [AZD8055] | did not antagonize |  |  |  | 
C=CC[C@@H]1/C=C(\C)C[C@H](C)C[C@H](OC)[C@H]2O[C@@](O)(C(=O)C(=O)N3CCCC[C@H]3C(=O)O[C@H](/C(C)=C/[C@@H]3CC[C@@H](O)[C@H](OC)C3)[C@H](C)[C@@H](O)CC1=O)[C@H](C)C[C@@H]2OC [FK506] | antagonize | low micromolar range | not appreciably | sensitive to competition | activated the Id1-Luc reporter gene
CO[C@H]1C[C@@H]2CC[C@@H](C)[C@@](O)(O2)C(=O)C(=O)N2CCCC[C@H]2C(=O)O[C@H]([C@H](C)C[C@@H]2CC[C@@H](O)[C@H](OC)C2)CC(=O)[C@H](C)/C=C(\C)[C@@H](O)[C@@H](OC)C(=O)[C@H](C)C[C@H](C)/C=C/C=C/C=C/1C [rapamycin] | antagonize | low micromolar range | not appreciably | sensitive to competition | activated the Id1-Luc reporter gene
